According to patent US12606543B2, “Indole derivatives as serotonergic agents useful for the treatment of disorders related thereto” (priority 2023, dated 2026):

Legend:
[1] = Plasma protein binding by equilibrium dialysis, human; format: in vitro ADME; conditions: for recovery at 6 h, 1 µM / fraction unbound at 6 h, 1 μM: human, plasma; for fraction unbound at 6 h, 1 μM: read-out: % Bound (converted)
Method: (§1) The final concentration of compound was 1 μM. The final concentration of DMSO was 0.5%. Ketoconazole was used as positive control in the assay.
(§2) The assay was performed in duplicate.
(§3) All calculations were carried out using Microsoft Excel. […] The percentages of bound compound were calculated as follows: […]
(§4) Ketoconazole was used as positive control in the assay.

[2] = Plasma protein binding by equilibrium dialysis, dog; format: in vitro ADME; conditions: for recovery at 6 h, 1 µM: dog
Method: as §1, §2, §3, §4

[3] = Plasma protein binding by equilibrium dialysis, mouse; format: in vitro ADME; conditions: for recovery at 6 h, 1 µM: CD-1, mouse, plasma
Method: as §1, §2, §3, §4

[4] = Plasma protein binding by equilibrium dialysis, rat
Method: 1. The Frozen Plasma (Stored at −80° C.) was Thawed Immediately in a 37° C. Water Bath.
(§5) The working solution of test compounds and control compound was prepared in DMSO at the concentration of 200 μM, and then the working solution was spiked into plasma. The final concentration of compound was 1 μM. The final concentration of DMSO was 0.5%. Ketoconazole was used as positive control in the assay.
The dialysis membranes were soaked in ultrapure water for 60 minutes to separate strips, then in 20% ethanol for 20 minutes, finally in dialysis buffer for 20 minutes.
The dialysis set up was assembled according to the manufacturer's instruction. Each Cell was with 150 μL of plasma sample and dialyzed against equal volume of dialysis buffer (PBS). The assay was performed in duplicate. The dialysis plate was sealed and incubated in an incubator at 37° C. with 5% CO2 at 100 rpm for 6 hours. At the end of incubation, 50 μL of samples from both buffer and plasma chambers were transferred to wells of a 96-well plate.
50 μL of plasma was added to each buffer samples and an equal volume of PBS was supplemented to the collected plasma sample. 400 μL of precipitation buffer acetonitrile containing internal standards (IS, 200 nM labetalol, 100 nM tolbutamide and 100 nM ketoprofen) was added to precipitate protein and release compounds. Samples were vortexed for 2 minutes and centrifuged for 30 minutes at 3,220 g. Aliquot of 50 μL of the supernatant was diluted by 150 μL acetonitrile containing internal standards: ultra-pure H2O=1:1, and the mixture was used for LC-MS/MS analysis.
All calculations were carried out using Microsoft Excel. The concentrations of test compounds in the buffer and plasma chambers were determined from peak area ratios. The percentages of bound compound were calculated as follows: […]
as §5, with “[…].” for “μM.”

[5] = human plasma, equilibrium dialysis, 37° C., 6 hours
[6] = mouse plasma, equilibrium dialysis, 37° C., 6 hours

## CC(=O)N1CCN(c2ccc(OCC3COC(Cn4ccnc4)(c4ccc(Cl)cc4Cl)O3)cc2)CC1 (stereo not shown) [Ketoconazole, reference compound]
[1]; Human plasma, 1 μM, 6 hours, 37° C.
  % Remaining @ 6 hours: 114.03%
[1]; human plasma, 6 hours
  % Remaining @ 6 hours: 99.64%
[1]; Human plasma, 1 μM, equilibrium dialysis 6 hours
  recovery at 6 h, 1 µM: 112%
[1]; Human plasma, 1 μM, equilibrium dialysis 6 hours, 37° C.
  fraction unbound at 6 h, 1 μM: 0.0088
[1]; [5]
  recovery at 6 h, 1 µM: 101%
  fraction unbound at 6 h, 1 μM: 0.0076
[2]; Beagle, Dog plasma, 1 μM, equilibrium dialysis 6 hours
  recovery at 6 h, 1 µM: 87.2%
[2]; Beagle, dog plasma, equilibrium dialysis, 37° C., 6 hours
  recovery at 6 h, 1 µM: 86.1%
[2]; Beagle, dog plasma, equilibrium dialysis, 37° C., 6 hours, read-out: % Bound (converted)
  fraction unbound at 6 h, 1 μM: 0.0105
[2]; Dog plasma, 1 μM, 6 hours, 37° C.
  % Remaining @ 6 hours: 92.22%
[2]; dog plasma, 6 hours
  % Remaining @ 6 hours: 87.36%
[3]; Mouse plasma, 1 μM, equilibrium dialysis 6 hours
  recovery at 6 h, 1 µM: 109%
[3]; [6]
  recovery at 6 h, 1 µM: 94.7%
  % Bound: 99.32%
[3]; CD-1, Mouse plasma, 1 μM, equilibrium dialysis 6 hours, 37° C., read-out: % Bound (converted)
  fraction unbound at 6 h, 1 μM: 0.0068
[3]; Mouse plasma, 1 μM, 6 hours, 37° C.
  % Remaining @ 6 hours: 103.60%
[3]; mouse plasma, 6 hours
  % Remaining @ 6 hours: 108.54%
[4]; Rat plasma, 1 μM, 37° C.
  % Remaining @ 6 hours: 101.20%
[4]; SD, rat
  recovery at 6 h, 1 µM: 105%
[4]; Sprague-Dawley (SD), rat
  recovery at 6 h, 1 µM: 101%
[4]; Sprague-Dawley, rat, plasma
  fraction unbound at 6 h, 1 μM: 0.0045
[4]; rat plasma
  % Remaining @ 6 hours: 109.42%
